{"source": "patent US10302644B2", "about": "“Compositions and methods for treating multiple myeloma” (Dana-Farber Cancer Institute, Inc., priority 2014, dated 2019)", "key": {"[1]": {"test_system": "IL-2 production", "test": "Co-stimulation of IL-2 production", "assay_type": "cell-based"}, "[2]": {"test_system": "B cell", "test": "B cell growth inhibition", "assay_type": "cell-based"}, "[3]": {"test_system": "LC3-II, Bim, PARP, MDM2, XIAP, cIAP, p-p70S6K", "test": "Immunoblotting/qPCR of autophagy and apoptosis proteins in MM cells", "assay_type": "cell-based", "method": "(§1) MM cells were harvested and lysed using RIPA-lysis buffer (Boston Bioproducts, Ashland, Mass.) containing 5 mM EDTA, 5 mM NaF, 2 mM Na3VO4, 1 mM PMSF, 5 μg/ml leupeptin, and 5 μg/ml aprotinin. Nuclear proteins were extracted using “Nuclear Extraction Kit” (Affimetrix). After the determination of protein concentration using DC protein assay (Bio-Rad, Hercules, Calif.), β-mercaptoethanol (-ME) was added to the whole-cell lysates to a 2% final concentration. The whole cell lysates or nuclear extracts were subjected to SDS-PAGE, transferred to nitrocellulose membranes (Bio-Rad, Hercules, Calif.) or polyvinylidene fluoride membranes (Millipore, Billerica, Mass.), and immunoblotted with indicated Abs. Silver staining was carried out using “SilverQuest Staining Kit®” (Invitrogen), according to manufacturer's protocol.\n(§2) RNA was extracted using Trizol (Invitrogen) and quantified by a Nanodrop spectrophotometer (Labtech). Specifically, 5×10^6 cells were pelleted, washed with cold PBS, and resuspended in 1 mL Trizol. They were then incubated with 1-Bromo-3-chloropropane (Sigma), washed first with Isopropyl alcohol and then with 75% Ethanol, and resuspended in Nuclease Free-water (Invitrogen). After quantification, 2000 ng of RNA was used to synthesize cDNA via the Superscript II First strand synthesis Kit (Invitrogen), according to the manufacturer's instructions. To evaluate the expression levels of TP53RK, BCL2L11, MYC, Bim, E2F1, TP53, IKZF1, IKZF3, RRM1, p18CDKN2C, PSMB5, PSMB7, PSMA3 and GAPDH, quantitative real time PCR (QRT-PCR) was performed using SYBR GREEN PCR Master Mix (Applied Biosystem), after optimization of the primer conditions. cDNAs were diluted 1:100 or 1:1000 and amplified in a 20 μL reaction. Primers were used at 200 nM or 400 nM concentration. Thermal cycling conditions were: 10 minutes at 95° C., 40 cycles at 95° C. for 15 seconds, followed by 1 minute at 60° C. Real-time quantitative PCR was performed on ABI Prism 7300 Sequence Detection System (Applied Biosystems). Data were analyzed using the delta delta Ct method. GAPDH was used as an invariant control."}, "[4]": {"test_system": "p53", "test": "Immunoblotting of p53 and phosphorylated p53 in MM cells", "assay_type": "cell-based", "method": "as §1"}, "[5]": {"test_system": "proteasome", "test": "Proteasome pathway (GSEA, qPCR) and chymotrypsin-like proteasome activity assay", "assay_type": "cell-based", "conditions": "H929 cells", "method": "as §2\nExpression data for plasma cells from healthy donors, monoclonal gammopathy of undetermined significance (MGUS), and smoldering myeloma (SMM) were derived from GSE5900 dataset, while expression data from normal plasma cells and 65 MM patients were obtained from GSE4452 dataset, using expression profiling on Affymetrix GeneChip (t test, unpaired, equal variance). […] Data were then normalized and analyzed using D-chip software, seeking statistically significant differences among groups or in p53-target gene expression. Statistical significance was determined by Student t test. The minimal level of significance was P<0.05. […] Gene set enrichment analysis (GSEA) was performed as previously described (2) (GSEA v2.0 at http://www.broad.mit.edu/gsea) using gene set as permutation type, as well as 1,000 permutations and signal to noise as metrics for ranking genes.\nProteasome activity was measured by using Proteasome-Glo™ chymotrypsin-like cell-based assay (Promega, Madison, Wis.) according to manufacturer's protocol."}, "[6]": {"test_system": "c-Myc, IKZF1/3", "test": "c-Myc and IKZF1/3 expression (immunoblotting, qPCR)", "assay_type": "cell-based", "conditions": "MM.1S cells", "method": "(§3) MM cells were harvested and lysed using RIPA-lysis buffer (Boston Bioproducts, Ashland, Mass.) containing 5 mM EDTA, 5 mM NaF, 2 mM Na3VO4, 1 mM PMSF, 5 μg/ml leupeptin, and 5 μg/ml aprotinin. Nuclear proteins were extracted using “Nuclear Extraction Kit” (Affimetrix). After the determination of protein concentration using DC protein assay (Bio-Rad, Hercules, Calif.), β-mercaptoethanol (-ME) was added to the whole-cell lysates to a 2% final concentration. […]\n(§4) RNA was extracted using Trizol (Invitrogen) and quantified by a Nanodrop spectrophotometer (Labtech). […] After quantification, 2000 ng of RNA was used to synthesize cDNA via the Superscript II First strand synthesis Kit (Invitrogen), according to the manufacturer's instructions. To evaluate the expression levels of TP53RK, BCL2L11, MYC, Bim, E2F1, TP53, IKZF1, IKZF3, RRM1, p18CDKN2C, PSMB5, PSMB7, PSMA3 and GAPDH, quantitative real time PCR (QRT-PCR) was performed using SYBR GREEN PCR Master Mix (Applied Biosystem), after optimization of the primer conditions. cDNAs were diluted 1:100 or 1:1000 and amplified in a 20 μL reaction. […] Real-time quantitative PCR was performed on ABI Prism 7300 Sequence Detection System (Applied Biosystems). Data were analyzed using the delta delta Ct method. […]"}, "[7]": {"test_system": "RRM1, p18CDKN2C", "test": "RRM1 and p18CDKN2C expression (RT-qPCR, Western blot)", "assay_type": "cell-based", "conditions": "H929 cells", "method": "as §1, §2"}, "[8]": {"test_system": "MM cells", "test": "Growth inhibition assay (MTT) / viable cell count (Trypan-blue)", "assay_type": "cell-based", "method": "Cell growth was assessed by measuring 3-(4,5-dimethylthiazol-2-yl)-2,5-diphenyl […] bromide (MTT, Chemicon International, Temecula, Calif.) dye absorbance. Cells were pulsed with 10 μl of 5 mg/ml MTT to each well for the last 4 h of 48 h and/or 72 h cultures, followed by 100 μl isopropanol containing 0.04N HCl. Absorbance was measured at 570/630 nm using a spectrophotometer (Molecular Devices Corp., Sunnyvale Calif.)."}, "[9]": {"test_system": "Chk1, ATM, ATR, Chk2", "test": "Immunoblotting of DNA damage kinase phosphorylation", "assay_type": "cell-based", "conditions": "MM.1S cells, 48 h", "method": "as §1"}, "[10]": {"test_system": "p53", "test": "p53 DNA binding activity assay", "assay_type": "cell-based", "conditions": "MM.1S and H929 cells, 48 h", "method": "E2F1 DNA binding activity was assessed by electrophoretic mobility shift assay (EMSA) using “EMSA Gel Shift Kit®” from Affimetrix (Santa Clara, Calif.), and p53 DNA binding activity was performed using “p53 Transcription Factor Assay Kit®” from Cayman Chemical (Ann Arbor, Mich.). Experiments were carried out according to manufacturer's protocols."}, "[11]": {"test_system": "TP53RK, CRBN", "test": "TP53RK and CRBN expression in MM cells (immunoblotting, qPCR)", "assay_type": "cell-based", "conditions": "MM.1S cells, 48 h", "method": "as §1, §2\npLKO.1-based shRNA vectors were obtained from the RNAi Consortium (Broad Institute). […] After 24 h of infection, cells expressing shRNA were selected with puromycin dihydrochloride (Sigma-Aldrich) at 1-2 μg/ml for 48 h, and then examined for proliferation and/or subjected to immunoblotting analysis. For siRNA transfection, scrambled, TP53RK, CRBN, p53, c-Myc and RRM1 siRNAs were purchased from Thermo Scientific (Lafayette, Colo.). siRNA transfection was carried out by Amaxa electroporation system using “Cell Line Nucleofector® Kit V or C” solution (Lonza, Koln, Germany)."}, "[12]": {"test_system": "hTERT", "test": "hTERT expression and telomerase activity (TeloTAGGG Telomerase PCR ELISA)", "assay_type": "cell-based", "conditions": "MM.1S cells and H929 cells", "method": "as §1\nTelomerase activity in MM.1S and H929 cells was assessed by “TeloTAGGG Telomerase PCR ELISA®” from Roche Applied Science (Mannheim, Germany)."}, "[13]": {"test_system": "E2F1", "test": "E2F1 DNA binding activity (EMSA), protein and mRNA", "assay_type": "cell-based", "conditions": "MM cells", "method": "as §3, §4"}, "[14]": {"target": "T1, TP53RK (Homo sapiens, UniProt Q96S44)", "T1 construct": "made in house; host or cells: HEK-293FT (transient calcium phosphate transfection; anti-DDK beads, Superdex 200)", "T1 sequence (Q96S44 whole entry, other chains not shown)": "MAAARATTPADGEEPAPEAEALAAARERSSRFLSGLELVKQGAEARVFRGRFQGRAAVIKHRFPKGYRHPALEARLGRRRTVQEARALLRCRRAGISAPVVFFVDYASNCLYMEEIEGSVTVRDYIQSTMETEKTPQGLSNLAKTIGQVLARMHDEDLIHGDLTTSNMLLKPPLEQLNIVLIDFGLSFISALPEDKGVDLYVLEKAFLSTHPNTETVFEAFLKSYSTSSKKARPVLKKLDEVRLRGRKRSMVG", "test": "In vitro TP53RK auto-phosphorylation assay", "assay_type": "biochemical", "conditions": "dose-dependent; recombinant TP53RK and TPRKB", "from_the_text": "Full-length TP53RK and TPRKB sequences obtained from OriGene (Rockville, Md.) were cloned and inserted into pCMV6-AC-Myc-DDK. These constructs were transiently transfected into HEK-293FT cells to overexpress recombinant C-terminal Myc-DDK tagged TP53RK and TPRKB by calcium phosphate transfection. The recombinant proteins were immunoprecipitated with anti-DDK agarose beads and subjected to gel chromatography using Superdex 200 sizing column with an HPLC system. TP53RK and TPRKB proteins were co-eluted in the same fraction, whereas the TPRKB single protein was eluted in later fractions.\nIn vitro TP53RK auto-phosphorylation assay was performed as previously described^2. Briefly, purified recombinant TP53RK and TPRKB proteins (1.5-3 μg/reaction) were incubated with 25 uM [γ-32P]ATP (3000 Ci/mmol, 10 mCi/mL, PerkinElmer, Boston, Mass.) in HEPES buffer (25 mM HEPES (pH 7.5), 100 mM NaCl, 25 mM MgCl2. 2 mM DTT, phosphatase inhibitor mix (Roche) for 30 min at 30° C. The reaction was terminated by adding SDS sample buffer, and reaction mixtures were subjected to SDS-PAGE and autoradiography, as well as Coomassie blue staining."}, "[15]": {"conditions": "MM.1S cells, Nutlin-3a 0.5 μM, 48 h"}}}
{"compound": "CC1(N2C(=O)c3cccc(N)c3C2=O)CCC(=O)NC1=O", "note": "(centres unmarked) [3′-methyl derivative]", "values": [{"measurement": "activity in co-stimulation of IL-2 production relative to pomalidomide", "setting": "[1]", "result": "similar"}, {"measurement": "activity in B cell growth inhibition relative to pomalidomide", "setting": "[2]", "result": "similar"}]}
{"compound": "CCOc1ccc(C(Nc2ccccn2)c2ccc3ccc(C)nc3c2O)cc1C", "note": "(centres unmarked) [HLM006474]", "values": [{"measurement": "IMiDs-induced Bim upregulation", "setting": "[3]; dose-dependent", "result": "blocked"}]}
{"compound": "COc1ccc(C2=N[C@@H](c3ccc(Cl)cc3)[C@@H](c3ccc(Cl)cc3)N2C(=O)N2CCNC(=O)C2)c(OC(C)C)c1", "note": "[Nut3, Nutlin-3a]", "values": [{"measurement": "p-p53 and p53 levels", "setting": "[4]; [15]", "result": "upregulated"}, {"measurement": "IMiD-triggered PARP cleavage in presence of Nut3", "setting": "[3]; MM.1S cells", "result": "enhanced"}, {"measurement": "MDM2 and XIAP expression", "setting": "[3]; MM.1S cells", "result": "upregulated"}, {"measurement": "LC3-II upregulation triggered by Len and Pom, in presence of Nut3", "setting": "[3]; [15]", "result": "markedly downregulated"}]}
{"compound": "Nc1cccc2c1C(=O)N(C1CCC(=O)NC1=O)C2=O", "note": "(centres unmarked) [Pom, pomalidomide]", "values": [{"measurement": "potency of p-p53/p53 downregulation, Pom versus Len", "setting": "[4]; MM.1S cells", "result": "more potently"}, {"measurement": "p53 phosphorylation at Ser20 and Ser37", "setting": "[4]; MM.1S cells, 2.5 μM, 48 h", "result": "no change"}, {"measurement": "phosphorylated (p-Ser15)-p53 and p53 levels", "setting": "[4]; MM.1S cells, 2.5 μM, 48 h", "result": "downregulated"}, {"measurement": "downstream p-p53 level", "setting": "[4]; MM.1S cells, 48 h", "result": "markedly reduced"}, {"measurement": "Nut3-induced upregulation of p-p53 and p53", "setting": "[4]; MM.1S cells, Len or Pom 2.5 μM with Nutlin-3a 0.5 μM, 48 h", "result": "inhibited"}, {"measurement": "p-p53/p53 downregulation", "setting": "[4]; nuclear extracts from MM.1S and H929 cell lines, patient MM cells", "result": "further confirmed"}, {"measurement": "chymotrypsin-like proteasome activity", "setting": "[5]", "result": "downregulation"}, {"measurement": "proteasome pathway (GSEA)", "setting": "[5]", "result": "downregulation"}, {"measurement": "LC3-II level", "setting": "[3]; MM.1S cells, 2.5 μM, 48 h", "result": "upregulation"}, {"measurement": "c-Myc transcription (real-time qPCR)", "setting": "[6]", "result": "decreased transcription"}, {"measurement": "RRM1 expression", "setting": "[7]", "result": "downregulate"}, {"measurement": "p18CDKN2C expression", "setting": "[7]", "result": "upregulate"}, {"measurement": "drug-triggered growth inhibition in kinase-dead D163A TP53RK transfectants", "setting": "[8]; H929 cells, 48 h", "result": "abrogated"}, {"measurement": "Pom-induced MM cell growth inhibition after TP53RK knockdown", "setting": "[8]; H929 cells, TP53RK siRNA then Pom 48 h, p<0.02", "result": "enhanced"}, {"measurement": "sensitivity of MM cell lines to drug", "setting": "[8]; MM.1S and H929 cells with wt-p53 versus cell lines with mutant p53", "result": "more sensitive"}, {"measurement": "drug-triggered cell death after CRBN knock-down", "setting": "[8]; OPM2 cells (mutant p53) and H929 cells (wt-p53)", "result": "only partially abrogates"}, {"measurement": "anti-MM activity", "setting": "[8]; among the IMiDs Thal, Len, Pom", "result": "most potent anti-MM activity"}, {"measurement": "phosphorylation of ATM, ATR or Chk2", "setting": "[9]", "result": "not"}, {"measurement": "phosphorylation of Chk1", "setting": "[9]", "result": "inhibited"}, {"measurement": "p53 activity (p53 DNA binding)", "setting": "[10]", "result": "block"}, {"measurement": "TP53RK level", "setting": "[11]", "result": "induced downregulation"}, {"measurement": "hTERT expression", "setting": "[12]", "result": "significantly inhibited"}, {"measurement": "telomerase (hTERT) activity", "setting": "[12]", "result": "significantly inhibited"}, {"measurement": "E2F1", "setting": "[13]", "result": "increases"}, {"measurement": "in vitro auto-phosphorylation of TP53RK", "setting": "[14]", "result": "markedly downregulated"}]}
